Laboratory results from patent US20070037837A1, “Quinazoline derivatives” (priority 2003, published 2007).

Assays:
EGFR tyrosine kinase = target: T1, EGFR tyrosine kinase (Homo sapiens, UniProt P00533); assay: Protein tyrosine kinase phosphorylation assay, Test (a), EGFR; format: biochemical; conditions: recombinant intracellular fragment, ATP at Km; read-out: IC50 Test (a): Inhibition of EGFR tyrosine kinase protein phosphorylation
T1 construct: Recombinant intracellular fragments of EGFR, erbB2 and erbB4; made in house; host or cells: baculovirus/Sf21 insect cells (cleared lysate used)
T1 sequence (P00533 669-1210 limits assumed): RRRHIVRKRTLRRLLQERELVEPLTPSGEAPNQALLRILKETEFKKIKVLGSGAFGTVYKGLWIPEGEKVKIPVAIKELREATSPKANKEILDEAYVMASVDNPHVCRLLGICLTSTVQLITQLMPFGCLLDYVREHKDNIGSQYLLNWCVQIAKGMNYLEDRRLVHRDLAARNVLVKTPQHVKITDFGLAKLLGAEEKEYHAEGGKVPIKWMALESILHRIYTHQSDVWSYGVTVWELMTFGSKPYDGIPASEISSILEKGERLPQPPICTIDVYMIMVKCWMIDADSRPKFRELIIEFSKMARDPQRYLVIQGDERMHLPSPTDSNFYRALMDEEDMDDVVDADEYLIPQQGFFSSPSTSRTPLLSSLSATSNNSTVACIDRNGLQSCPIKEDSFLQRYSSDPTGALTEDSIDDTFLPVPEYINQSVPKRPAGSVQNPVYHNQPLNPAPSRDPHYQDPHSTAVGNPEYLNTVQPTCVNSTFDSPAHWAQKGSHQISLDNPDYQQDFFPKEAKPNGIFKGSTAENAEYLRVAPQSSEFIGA
Procedure: (§1) This test measures the ability of a test compound to inhibit the phosphorylation of a tyrosine containing polypeptide substrate by EGFR and erbB2 tyrosine kinase enzyme.
(§2) Recombinant intracellular fragments of EGFR, erbB2 and erbB4 (accession numbers X00588, X03363 and L07868 respectively) were cloned and expressed in the baculovirus/Sf21 system. Lysates were prepared from these cells by treatment with ice-cold lysis buffer (20 mM N-2-hydroxyethylpiperizine-N′-2-ethanesulfonic acid (HEPES) pH 7.5, 150 mM NaCl, 10% glycerol, 1% Triton X-100, 1.5 mM MgCl2, 1 mM ethylene glycol-bis(β-aminoethyl ether) N′,N′,N′,N′-tetraacetic acid (EGTA), plus protease inhibitors and then cleared by centrifugation.
Constitutive kinase activity of the recombinant protein was determined by its ability to phosphorylate a synthetic peptide (made up of a random co-polymer of Glutamic Acid, Alanine and Tyrosine in the ratio of 6:3:1). Specifically, Maxisorb™ 96-well immunoplates were coated with synthetic peptide (0.2 μg of peptide in a 100 μl phosphate buffered saline (PBS) solution and incubated at 4° C. overnight). Plates were washed in PBS-T (phosphate buffered saline with 0.5% Tween 20) then in 50 mM HEPES pH 7.4 at room temperature to remove any excess unbound synthetic peptide. […]
The immobilised phospho-peptide product of the reaction was detected by immunological methods. […] After further washing, HRP activity in each well of the plate was measured colorimetrically using 22′-Azino-di-[3-ethylbenzthiazoline sulfonate (6)] diammonium salt crystals (ABTS™ from Roche) as a substrate.
(§3) Quantification of colour development and thus enzyme activity was achieved by the measurement of absorbance at 405 nm on a Molecular Devices ThermoMax microplate reader. Kinase inhibition for a given compound was expressed as an IC50 value. […] The range of phosphorylation was calculated from the positive (vehicle plus ATP) and negative (vehicle minus ATP) control values.

erbB2 tyrosine kinase = target: T2, erbB2 tyrosine kinase (Homo sapiens, UniProt P04626); assay: Protein tyrosine kinase phosphorylation assay, Test (a), erbB2; format: biochemical; conditions: recombinant intracellular fragment, ATP at Km; read-out: IC50 Test (a): Inhibition of erbB2 tyrosine kinase protein phosphorylation
T2 construct: Recombinant intracellular fragments of EGFR, erbB2 and erbB4; made in house; host or cells: baculovirus/Sf21 insect cells (cleared lysate used)
T2 sequence (P04626 676-1255 limits assumed): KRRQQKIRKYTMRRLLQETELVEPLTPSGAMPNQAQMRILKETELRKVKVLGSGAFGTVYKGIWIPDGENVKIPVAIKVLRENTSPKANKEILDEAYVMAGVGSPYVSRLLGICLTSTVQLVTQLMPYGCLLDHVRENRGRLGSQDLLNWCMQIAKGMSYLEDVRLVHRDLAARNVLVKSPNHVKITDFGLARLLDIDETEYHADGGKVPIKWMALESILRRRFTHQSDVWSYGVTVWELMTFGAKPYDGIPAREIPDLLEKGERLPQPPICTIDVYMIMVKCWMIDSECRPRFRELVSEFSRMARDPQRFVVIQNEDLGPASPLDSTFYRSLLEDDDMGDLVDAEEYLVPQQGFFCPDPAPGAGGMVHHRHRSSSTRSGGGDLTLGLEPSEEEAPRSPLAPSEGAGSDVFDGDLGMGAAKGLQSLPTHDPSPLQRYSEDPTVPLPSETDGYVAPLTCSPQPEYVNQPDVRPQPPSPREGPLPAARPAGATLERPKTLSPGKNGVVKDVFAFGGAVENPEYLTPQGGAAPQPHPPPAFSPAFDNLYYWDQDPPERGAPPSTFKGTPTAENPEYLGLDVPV
Procedure: as §1, §2
Constitutive kinase activity of the recombinant protein was determined by its ability to phosphorylate a synthetic peptide (made up of a random co-polymer of Glutamic Acid, Alanine and Tyrosine in the ratio of 6:3:1). Specifically, Maxisorb™ 96-well immunoplates were coated with synthetic peptide (0.2 μg of peptide in a 100 μl phosphate buffered saline (PBS) solution and incubated at 4° C. overnight). Plates were washed in PBS-T (phosphate buffered saline with 0.5% Tween 20) then in 50 mM HEPES pH 7.4 at room temperature to remove any excess unbound synthetic peptide. EGFR, ErbB2 or ErbB4 tyrosine kinase activity was assessed by incubation in peptide coated plates for 20 minutes at 22° C. in 100 mM HEPES pH 7.4, adenosine trisphosphate (ATP) at Km concentration for the respective enzyme, 10 mM MnCl2, 0.1 mM Na3VO4, 0.2 mM DL-dithiothreitol (DTT), 0.1% Triton X-100 with test compound in DMSO (final concentration of 2.5%). Reactions were terminated by the removal of the liquid components of the assay followed by washing of the plates with PBS-T.
The immobilised phospho-peptide product of the reaction was detected by immunological methods. Firstly, plates were incubated for 90 minutes at room temperature with anti-phosphotyrosine primary antibodies that were raised in the mouse (4G10 from Upstate Biotechnology). Following extensive washing, plates were treated with Horseradish Peroxidase (HRP) conjugated sheep anti-mouse secondary antibody (NXA931 from Amersham) for 60 minutes at room temperature. After further washing, HRP activity in each well of the plate was measured colorimetrically using 22′-Azino-di-[3-ethylbenzthiazoline sulfonate (6)] diammonium salt crystals (ABTS™ from Roche) as a substrate.
as §3

KB cells = assay: EGFR driven KB cell proliferation assay, Test (b); format: cell-based; conditions: Homo sapiens, 96 h, EGF 1 ng/ml, 4 days, MTT
Procedure: This assay measures the ability of a test compound to inhibit the proliferation of KB cells (human naso-pharangeal carcinoma obtained from the American Type Culture Collection (ATCC).
KB cells (human naso-pharangeal carcinoma obtained from the ATCC were cultured in Dulbecco's modified Eagle's medium (DMEM) containing 10% foetal calf serum, 2 mM glutamine and non-essential amino acids at 37° C. in a 7.5% CO2 air incubator. Cells were harvested from the stock flasks using Trypsin/ethylaminediaminetetraacetic acid (EDTA). Cell density was measured using a haemocytometer and viability was calculated using trypan blue solution before being seeded at a density of 1.25×10^3 cells per well of a 96 well plate in DMEM containing 2.5% charcoal stripped serum, 1 mM glutamine and non-essential amino acids at 37° C. in 7.5% CO2 and allowed to settle for 4 hours.
Following adhesion to the plate, the cells are treated with or without EGF (final concentration of 1 ng/ml) and with or without compound at a range of concentrations in dimethylsulfoxide (DMSO) (0.1% final) before incubation for 4 days. Following the incubation period, cell numbers were determined by addition of 50 μl of 3-(4,5-Dimethylthiazol-2-yl)-2,5-diphenyltetrazolium bromide (MTT) (stock 5 mg/ml) for 2 hours. MTT solution was then tipped off, the plate gently tapped dry and the cells dissolved upon the addition of 100 μl of DMSO.
Absorbance of the solubilised cells was read at 540 nm using a Molecular Devices ThermoMax microplate reader. Inhibition of proliferation was expressed as an IC50 value. This was determined by calculation of the concentration of compound that was required to give 50% inhibition of proliferation. The range of proliferation was calculated from the positive (vehicle plus EGF) and negative (vehicle minus EGF) control values.

erbB2 = target: T3, erbB2 (Homo sapiens, UniProt P04626); assay: Clone 24 phospho-erbB2 cell assay, Test (e); format: cell-based; conditions: MCF7 derived Clone 24 cells, 4 hrs; read-out: IC50 Test (e): Inhibition of erbB2 tyrosine kinase protein phosphorylation
T3 construct: to give a cell line that overexpresses full length wild type erbB2 protein; expressed in transfected cells; host or cells: MCF7 (breast carcinoma) derived 'Clone 24' cells
T3 sequence (P04626 23-1255): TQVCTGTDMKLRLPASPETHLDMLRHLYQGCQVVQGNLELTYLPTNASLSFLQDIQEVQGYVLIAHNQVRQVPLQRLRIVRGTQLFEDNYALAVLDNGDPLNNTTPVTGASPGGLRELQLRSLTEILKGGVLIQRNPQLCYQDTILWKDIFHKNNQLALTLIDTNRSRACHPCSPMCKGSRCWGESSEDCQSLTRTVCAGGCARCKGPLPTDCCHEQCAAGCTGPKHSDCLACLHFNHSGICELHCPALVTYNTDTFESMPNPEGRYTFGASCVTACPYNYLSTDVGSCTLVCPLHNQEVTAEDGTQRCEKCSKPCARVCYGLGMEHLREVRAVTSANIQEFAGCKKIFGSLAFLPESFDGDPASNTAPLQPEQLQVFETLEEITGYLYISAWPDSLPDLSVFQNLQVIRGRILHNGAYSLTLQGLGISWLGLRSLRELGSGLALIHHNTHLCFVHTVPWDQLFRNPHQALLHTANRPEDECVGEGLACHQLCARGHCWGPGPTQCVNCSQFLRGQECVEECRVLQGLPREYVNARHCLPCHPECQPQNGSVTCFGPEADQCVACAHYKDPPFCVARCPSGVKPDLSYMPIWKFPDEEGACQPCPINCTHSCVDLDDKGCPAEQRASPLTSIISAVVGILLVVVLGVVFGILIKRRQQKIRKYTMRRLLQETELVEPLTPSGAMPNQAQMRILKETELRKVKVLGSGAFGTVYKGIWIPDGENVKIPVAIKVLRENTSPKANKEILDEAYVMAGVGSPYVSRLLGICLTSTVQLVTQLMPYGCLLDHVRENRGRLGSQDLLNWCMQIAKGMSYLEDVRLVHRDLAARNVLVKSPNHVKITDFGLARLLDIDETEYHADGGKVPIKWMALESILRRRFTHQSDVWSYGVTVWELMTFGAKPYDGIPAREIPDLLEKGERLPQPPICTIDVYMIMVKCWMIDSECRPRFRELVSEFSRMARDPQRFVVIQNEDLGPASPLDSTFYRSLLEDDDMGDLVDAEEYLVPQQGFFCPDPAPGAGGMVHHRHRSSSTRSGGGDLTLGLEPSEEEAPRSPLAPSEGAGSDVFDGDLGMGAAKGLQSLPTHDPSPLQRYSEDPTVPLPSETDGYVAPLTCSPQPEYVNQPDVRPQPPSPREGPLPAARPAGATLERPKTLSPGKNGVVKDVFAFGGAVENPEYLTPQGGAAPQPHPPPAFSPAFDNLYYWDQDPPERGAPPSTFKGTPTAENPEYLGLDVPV
Procedure: This immunofluorescence end point assay measures the ability of a test compound to inhibit the phosphorylation of erbB2 in a MCF7 (breast carcinoma) derived cell line which was generated by transfecting MCF7 cells with the full length erbB2 gene using standard methods to give a cell line that overexpresses full length wild type erbB2 protein (hereinafter ‘Clone 24’ cells).
Clone 24 cells were cultured in Growth Medium (phenol red free Dulbecco's modified Eagle's medium (DMEM) containing 10% foetal bovine serum, 2 mM glutamine and 1.2 mg/ml G418) in a 7.5% CO2 air incubator at 37° C. Cells were harvested from T75 stock flasks by washing once in PBS (phosphate buffered saline, pH 7.4, Gibco No. 10010-015) and harvested using 2 mls of Trypsin (1.25 mg/ml)/ethylaminediaminetetraacetic acid (EDTA) (0.8 mg/ml) solution. The cells were resuspended in Growth Medium. Cell density was measured using a haemocytometer and viability was calculated using Trypan Blue solution before being further diluted in Growth Medium and seeded at a density of 1×10^4 cells per well (in 100 ul) into clear bottomed 96 well plates (Packard, No. 6005182).
3 days later, Growth Medium was removed from the wells and replaced with 100 ul Assay Medium (phenol red free DMEM, 2 mM glutamine, 1.2 mg/ml G418) either with or without erbB inhibitor compound. Plates were returned to the incubator for 4 hrs and then 20 μl of 20% formaldehyde solution in PBS was added to each well and the plate was left at room temperature for 30 minutes. This fixative solution was removed with a multichannel pipette, 100 μl of PBS was added to each well and then removed with a multichannel pipette and then 50 μl PBS was added to each well. Plates were then sealed and stored for up to 2 weeks at 4° C.
Immunostaining was performed at room temperature. Wells were washed once with 200 μl PBS/Tween 20 (made by adding 1 sachet of PBS/Tween dry powder (Sigma, No. P3563) to 1 L of double distilled H2O) using a plate washer then 200 μl Blocking Solution (5% Marvel dried skimmed milk (Nestle) in PBS/Tween 20) was added and incubated for 10 minutes. Blocking Solution was removed using a plate washer and 200 μl of 0.5% Triton X-100/PBS was added to permeabalise the cells. After 10 minutes, the plate was washed with 200 μl PBS/Tween 20 and then 200 μl Blocking Solution was added once again and incubated for 15 minutes. […]
The Fluorescence signal is each well was measured using an Acumen Explorer Instrument (Acumen Bioscience Ltd.), a plate reader that can be used to rapidly quantitate features of images generated by laser-scanning. […]

| IC50 (EGFR tyrosine kinase) | IC50 (erbB2 tyrosine kinase) | IC50 (KB cells) | IC50 (erbB2) | Structure (SMILES) |
| --- | --- | --- | --- | --- |
| 2 nM | 2 nM | 15 nM | 29 nM | COc1cc2ncnc(Nc3ccc(F)c(Cl)c3F)c2cc1OC1CCN(C(=O)OCCN2CCCC2)CC1 [Example 4, 4-(3-Chloro-2,4-difluoroanilino)-7-methoxy-6-{[1-{2-(pyrrolidin-1-yl)ethoxycarbonyl}piperidin-4-yl]oxy}quinazoline] |
| – | 2 nM | 10 nM | 41 nM | COc1cc2ncnc(Nc3cccc(Cl)c3F)c2cc1OC1CCN(C(=O)OCCN2CCCCC2)CC1 [Example 6, 4-(3-Chloro-2-fluoroanilino)-7-methoxy-6-{[1-{2-(piperidin-1-yl)ethoxycarbonyl}piperidin-4-yl]oxy}quinazoline] |
| 4 nM | 10 nM | 9 nM | 36 nM | COc1cc2ncnc(Nc3cccc(Cl)c3F)c2cc1OC1CCN(C(=O)OCCN2CCCC2)CC1 [Example 2, 4-(3-Chloro-2-fluoroanilino)-7-methoxy-6-{[1-{2-(pyrrolidin-1-yl)ethoxycarbonyl}piperidin-4-yl]oxy}quinazoline] |
| 1 nM | 38 nM | 35 nM | 9 nM | COC(=O)N1CCC(Oc2cc3c(Nc4cccc(Cl)c4F)ncnc3cc2OC)CC1 [Example 1, 4-(3-Chloro-2-fluoroanilino)-7-methoxy-6-{[1-(methoxycarbonyl)piperidin-4-yl]oxy}quinazoline] |
